We go through 13 compounds from patent publication US20240239811A1, “5-(5-(PIPERIDIN-4-YL)THIENO[3,2-C]PYRAZOL-2-YL]INDAZOLE DERIVATIVES AND RELATED COMPOUNDS AS MODULATORS FOR SPLICING NUCLEIC ACIDS AND FOR THE T” (REMIX THERAPEUTICS INC., priority 2020, published 2024).

What all share (format): cell-based
In one assay the test system is SMN2 CJ mRNA. The assay is described as follows: Gene panel canonical junction qPCR assay, SMN2. Particulars: Table 6, decrease in CJ mRNA, read-out: SMN2 IC50 (decrease in CJ mRNA levels). A digest of the protocol:
(§1)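 A673 or K562 cells treated 24 h at 37° C with 11-point 3-fold dilutions, top 10 uM, DMSO ≤0.25%. CJ mRNA quantified by RT-qPCR with exon-junction-spanning probeset, ΔΔCt vs housekeeping gene (GAPDH, GUSB or PPIA) and DMSO control. IC50 from 4-parameter fit of percentage CJ decrease.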
A general note: Quantitative PCR measures a nucleic acid by following its amplification.

The test system of another assay is HTT mRNA. In words: Splicing assay (RT-qPCR) monitoring HTT splice variants, canonical (CJ) and alternative (AJ) junction. Particulars: 50% response, A673 or K562 cell line, 24 hours; for IC50: decrease in CJ mRNA; for AC50: increase in AJ mRNA. A digest of the protocol:
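A673 or K562 cells were treated 24 h with an 11-point 3-fold dilution series (top 10 uM, ≤0.25% DMSO) at 37 °C. HTT canonical- and alternative-junction mRNAs were quantified in lysates by one-step RT-qPCR. Values were normalized to PPIA (A673) or GAPDH/GUSB (K562).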

Another assay deals with Target C CJ mRNA. In words: Gene panel canonical junction qPCR assay, Target C. Conditions: Table 6, decrease in CJ mRNA, read-out: Target C IC50 (decrease in CJ mRNA levels). In a few lines: as §1
The next assay relates to HTT CJ mRNA. The assay is described as follows: Gene panel canonical junction qPCR assay, HTT. Conditions: Table 6, decrease in CJ mRNA, read-out: HTT IC50 (decrease in CJ mRNA levels). In a few lines: as §1

For orientation: IC50 means the concentration that gives 50% inhibition. The AC50 is the concentration at which the activity in the assay is half-maximal. Lower therefore signals activity at low concentration. Turning to `Cc1cc(-c2nc3sc(C4CCNCC4)cc3s2)cc2cn(C)nc12` [Compound 238, 2,7-dimethyl-5-[5-(piperidin-4-yl)thieno[2,3-d][1,3]thiazol-2-yl]indazole], the IC50 is less than 100 nM in the assay with SMN2 CJ mRNA, less than 100 nM with HTT mRNA, 100 to 1000 nM with Target C CJ mRNA and less than 100 nM with HTT CJ mRNA. The AC50 in the assay with HTT mRNA is less than 100 nM.
Turning to `Cc1cn2cc(-n3cc4sc(C5CCNCC5)cc4n3)cc(F)c2n1` [Compound 166, 4-(2-{8-fluoro-2-methylimidazo[1,2-a]pyridin-6-yl}thieno[3,2-c]pyrazol-5-yl)piperidine], the 50% inhibitory concentration (IC50) in the assay on SMN2 CJ mRNA was in the range of 100 to 1000 nM; in the assay with HTT mRNA it was 100 to 1000 nM; in the assay with Target C CJ mRNA it was 1000 to 10000 nM; in the assay with HTT CJ mRNA it was 100 to 1000 nM. The same compound displayed an AC50 with HTT mRNA of 100 to 1000 nM.
In the case of `Cc1nc2c(F)cc(-n3cc4cc(C5CCNCC5)sc4n3)cc2o1` [Compound 157], the IC50 in the assay with SMN2 CJ mRNA is less than 100 nM; in the assay on HTT mRNA, 100 to 1000 nM; in the assay on Target C CJ mRNA it was 100 to 1000 nM; with HTT CJ mRNA it was 100 to 1000 nM. The compound also yielded an AC50 in the assay with HTT mRNA of 100 to 1000 nM.
`Cc1cn2nc(-c3cc4cn(C5CCNCC5)nc4s3)cc(C)c2n1` [Compound 162, 4-(5-{2,8-dimethylimidazo[1,2-b]pyridazin-6-yl}thieno[2,3-c]pyrazol-2-yl)piperidine]: the IC50 was less than 100 nM in the assay on SMN2 CJ mRNA, less than 100 nM in the assay on HTT mRNA, 100 to 1000 nM in the assay with Target C CJ mRNA and less than 100 nM in the assay on HTT CJ mRNA. The half-maximal activity concentration (AC50) in the assay on HTT mRNA was less than 100 nM.
For `CN(c1cc2sc(-c3ccc(-c4cn[nH]c4)cc3O)nc2s1)[C@@H]1C[C@H]2CC[C@@H](C1)N2` [Compound 191, 2-{5-[(1R,3R,5S)-8-azabicyclo[3.2.1]octan-3-yl(methyl)amino]thieno[2,3-d][1,3]-thiazol-2-yl}-5-(1H-pyrazol-4-yl)phenol], the IC50 with SMN2 CJ mRNA, with HTT mRNA, in the assay on Target C CJ mRNA and in the assay on HTT CJ mRNA was more than 10000 nM throughout. For the same compound, the AC50 with HTT mRNA is more than 10000 nM.
As to `Cc1cn2nc(-c3nc4sc(C5CCNCC5)cc4s3)cc(C)c2n1` [Compound 112, 4-(2-[2,8-dimethylimidazo[1,2-b]pyridazin-6-yl]thieno[2,3-d][1,3]thiazol-5-yl)piperidine], the IC50 with SMN2 CJ mRNA, in the assay with HTT mRNA, with Target C CJ mRNA and with HTT CJ mRNA was less than 100 nM throughout. Besides, in the assay with HTT mRNA, the AC50 is less than 100 nM.
Consider `CN1CCC(c2cc3sc(-c4cc(F)c5nn(C)cc5c4)nc3s2)CC1` [Compound 151, 7-fluoro-2-methyl-5-[5-(1-methylpiperidin-4-yl)thieno[2,3-d][1,3]thiazol-2-yl]indazole], for which the IC50 with SMN2 CJ mRNA, with HTT mRNA, in the assay on Target C CJ mRNA and in the assay with HTT CJ mRNA was less than 100 nM each time. The compound further displayed an AC50 in the assay on HTT mRNA of less than 100 nM.
Take `Cn1cc2cc(-c3nc4sc(C5(O)CCNCC5)cc4s3)cc(F)c2n1` [Compound 236, 4-[2-(7-fluoro-2-methylindazol-5-yl)thieno[2,3-d] [1,3]thiazol-5-yl] piperidin-4-ol]: the IC50 fell in the range of 100 to 1000 nM with SMN2 CJ mRNA, 100 to 1000 nM in the assay on HTT mRNA, 1000 to 10000 nM in the assay on Target C CJ mRNA and 100 to 1000 nM in the assay on HTT CJ mRNA. For the same compound, the AC50 in the assay on HTT mRNA lay in the range of 1000 to 10000 nM.
In the case of `Cn1cc2cc(-c3nc4sc(N5CCNC6(CC6)C5)cc4s3)cc(F)c2n1` [Compound 136, 5-(5-[4,7-diazaspiro[2.5]octan-7-yl]thieno[2,3-d][1,3]thiazol-2-yl)-7-fluoro-2-methylindazole], the IC50 in the assay with SMN2 CJ mRNA was 100 to 1000 nM; in the assay on HTT mRNA it was more than 10000 nM; in the assay on Target C CJ mRNA, more than 10000 nM; with HTT CJ mRNA, more than 10000 nM. The compound also registered an AC50 with HTT mRNA of more than 10000 nM.
Turning to `Cc1cn2nc(-n3cc4sc(N5CC6(CN(C)C6)C5)cc4n3)cc(C)c2n1` [Compound 188, 2-(2-{2,8-dimethylimidazo[1,2-b]pyridazin-6-yl}thieno [3,2-c]pyrazol-5-yl)-6-methyl-2,6-diazaspiro [3.3] heptane], the 50% inhibitory concentration (IC50) in the assay on SMN2 CJ mRNA lay within 100 to 1000 nM; in the assay with HTT mRNA, 100 to 1000 nM; in the assay on Target C CJ mRNA, 1000 to 10000 nM; in the assay on HTT CJ mRNA, 100 to 1000 nM. Moreover, in the assay with HTT mRNA, the AC50 lay within 1000 to 10000 nM.
For `Cn1cc2cc(-c3nc4sc(N5CCNCC5)c(Cl)c4s3)cc(F)c2n1` [Compound 147], the IC50 in the assay with SMN2 CJ mRNA was less than 100 nM; in the assay on HTT mRNA, 100 to 1000 nM; in the assay on Target C CJ mRNA, 1000 to 10000 nM; in the assay with HTT CJ mRNA, 100 to 1000 nM. In the assay on HTT mRNA, this compound showed an AC50 of 100 to 1000 nM.
In the case of `Cc1cn2cc(-n3cc4sc(C5CCNCC5)cc4n3)cc(C)c2n1` [Compound 173], the 50% inhibitory concentration (IC50) in the assay with SMN2 CJ mRNA is 1000 to 10000 nM; in the assay on HTT mRNA, 1000 to 10000 nM; in the assay with Target C CJ mRNA it was more than 10000 nM; with HTT CJ mRNA, 1000 to 10000 nM. In the assay on HTT mRNA, the AC50 fell in the range of 1000 to 10000 nM.
Consider `Cn1cc2cc(-n3cc4cc(C5CCNCC5)sc4n3)cc(F)c2n1` [Compound 104, 7-fluoro-2-methyl-5-[5-(piperidin-4-yl)thieno[2,3-c]pyrazol-2-yl] indazole], for which the IC50 is less than 100 nM in the assay with SMN2 CJ mRNA, less than 100 nM in the assay with HTT mRNA, 100 to 1000 nM in the assay on Target C CJ mRNA and less than 100 nM in the assay on HTT CJ mRNA. For the same compound, the AC50 in the assay on HTT mRNA lay in the range of 100 to 1000 nM.
